Patent publication US5137889A, “Dihydropyridine derivatives and process for preparing the same” (Otsuka Pharmaceutical Co., Ltd., priority 1983, dated 1992)
Where two headings read alike, the source gives them in different places.

Key:
[1] = target: T1, Calmodulin-cyclic-AMP phosphodiesterase (Bos taurus, UniProt P62157); assay: Calmodulin-cyclic-AMP phosphodiesterase inhibitory activity (presence of calmodulin); type: biochemical, bovine
T1 construct: tissue Amano & Co. (calmodulin only); host or cells: phosphodiesterase: bovine heart, partially purified; calmodulin: bovine brain
Description: (1) Calmodulin: A calmodulin product manufactured by Amano & Co., which was isolated from the brain of bovine, and purified so as to be considered as a single substance with respect to SDS-page (polyacrylamide gel electrophoresis) method.
(§1) (2) Calmodulin-dependent cyclic-AMP phosphodiesterase (EC 3.1.4.17): An enzyme substance isolated from the heart of bovine and purified partially by a method of modified version of the disclosure in H. C. Ho, T. S. Teo, et al.: "Biochim. Biophys. Acta", 429, 461 (1976).
(§2) (3) 5'-Nucleotidase (EC 3.1.3.5): Grade IV substance (isolated from Crotalus adamanteus venom) manufactured by Sigma & Co.
(§3) (4) Others: Remainder of the reagents used in the test were those of reagent grade chemicals manufactured by Wako Pure-Chemical Industries, Ltd.
(§4) Calmodulin inhibitory activity of each of the test compounds was measured by a method of modified version of the disclosure in T. S. Teo and T. H. Wang: "J. Bio. Chem.", 248, 588 (1973).
(2) Calmodulin: One unit thereof stimulates 0.015 activated unit of cyclic-AMP phosphodiesterase to 50% of the maximum activity of the enzyme.
(§5) (3) 5'-Nucleotidase: One unit thereof hydrolyzes 1.0 micromole of inorganic phosphorus from adnosine 5'-monophosphate per minute at pH 9.0 at 37° C.
(1) Calmodulin-cyclic-AMP phosphodiesterase inhibitory activity:
40 mM of Imidazol, 20 mM of MgCl2, 20 mM of CaC12, 0.008 unit of cyclic-AMP phosphodiesterase, 1.0 unit of calmodulin, 0.2 unit of 5'-nucleotidase and 1.0 ml of 10 mM-tris(hydroxymethyl)aminomethane/HCl buffer solution (pH 7.0) containing 0.5 mM of cyclic-AMP were mixed together, and reacted at 30° C. for 30 minutes. Each of the test compounds was dissolved in methanol or N,N-dimethylformamide as the solvent, provided that the quantity of the solvent was not exceed 2% of the total amount of the mixture. After the reaction was completed, the reaction mixture was ice-cooled, and 0.5 ml each of aqueous solutions of 16.5%-trichloroacetic acid, 1%-thiourea, 3%-ammonium ferrous sulfate were respectively added to the reaction mixture. Further, 0.15 ml of 4.4%-ammonium molibdate solution was added to the mixture and the whole of the mixture was stirred, and was centrifuged at 3,000 r.p.m. for 10 minutes. Then, the centrifuged mixture was allowed to stand at a room temperature for 20 minutes. The OD660 nm (optical density at 660 nm) was measured.

[2] = target: T2, Cyclic-AMP phosphodiesterase (Bos taurus, UniProt P14100); assay: Cyclic AMP phosphodiesterase inhibitory activity (absence of calmodulin, EGTA in place of CaCl2); type: biochemical, bovine; settings: 1 mM EGTA in place of CaCl2; 3 hours
T2 construct: from tissue; host or cells: bovine heart, partially purified
T2 sequence (P14100 1-514 isoform P14100-2): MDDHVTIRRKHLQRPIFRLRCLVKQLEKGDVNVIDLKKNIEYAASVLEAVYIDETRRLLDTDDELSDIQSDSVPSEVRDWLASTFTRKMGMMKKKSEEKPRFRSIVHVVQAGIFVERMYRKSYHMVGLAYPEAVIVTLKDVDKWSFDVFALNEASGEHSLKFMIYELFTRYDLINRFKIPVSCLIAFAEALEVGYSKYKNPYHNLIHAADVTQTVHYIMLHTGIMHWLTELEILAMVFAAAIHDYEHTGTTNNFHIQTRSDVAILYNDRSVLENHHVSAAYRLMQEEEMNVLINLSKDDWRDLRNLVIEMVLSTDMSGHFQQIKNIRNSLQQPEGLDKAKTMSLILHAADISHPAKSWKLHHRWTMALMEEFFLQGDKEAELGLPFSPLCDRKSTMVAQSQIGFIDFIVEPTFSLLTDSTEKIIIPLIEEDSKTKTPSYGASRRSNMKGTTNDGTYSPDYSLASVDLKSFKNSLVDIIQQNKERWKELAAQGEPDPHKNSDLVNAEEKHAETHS
Description: as §1, §2, §3, §4, §5
(2) Cyclic AMP phosphodiesterase inhibitory activity:
The reaction was conducted by a method similar to that described in (1) as mentioned above, except that 1 mM of EGTA [ethylene glycol-bis(β-amino ethyl ether)-N,N-tetraacetic acid] was used in place of 20 mM of CaCl2. The reaction was conducted for 3 hours.

[3] = tested on: SHR-rats (spontaneously hypertensive rats); settings: 30 mg/kg p.o.
Description: Systolic blood pressures and heart beat of SHR-rats (spontaneously hypertensive rats) were determined by a "tail cuff method". Thus the test animal was placed in a thermostat chamber (Type: FR-12RS, manufactured by Isuze & Co.) and was warmed at 40° C. for 15 minutes so as to vasodilate the tail arteria, the systolic blood pressures were measured by an electro sphygmomanometer (Type: PE-300, manufactured by Narco-Biosystems, Inc.) and recorded by an ink-writing recorder (Type: RECTI-HORIZ 8s, manufactured by San-Ei Instrument & Co.). The experiments were conducted under non-anesthetized and semi-confinement conditions. The test compound was orally administered forcedly by using a sonde for oral administration. The test compound was suspended in 0.15%-gum arabic powder aqueous solution so as to make the quantity of the test compound to 2.5 ml/kg. The test animal was not fasted, and the systolic blood pressures (mm-Hg) were measured before the administration (hereinafter referred to as "PRE") and after the administration (8, 24, 30, 48, 54 and 72 hours after the administration) of the test compound. The data of systolic blood pressure measured before the administration are shown in absolute value of mmHg, and the data measured after the administration are shown in the differences from the absolute values.

[4] = with calmodulin and CaCl2, pH 7.0, 30° C., 30 minutes, read-out: Calmodulin-cyclic-AMP phosphodiesterase IC50 (converted)

## COC(=O)C1=C(C)NC(C)=C(C(=O)OC/C=C/c2ccc(O)cc2)C1c1ccccc1C(F)(F)F (stereo not drawn) [Example 14]
[1]; [4]
  IC50: 12.8 µM

## COC(=O)C1=C(C)NC(C)=C(C(=O)OC/C=C/c2ccccc2)C1c1cccc([N+](=O)[O-])c1 (stereo not drawn) [Test Compound 2, Methyl 3-phenyl-2(E)-propenyl 1,4-dihydro-2,6-dimethyl-4-(3-nitrophenyl)pyridine-3,5-dicarboxylate]
[1]; [4]
  IC50: 5.57 µM

## COC(=O)C1=C(C)NC(C)=C(C(=O)OC/C=C/C=C/c2ccc(O)cc2)C1c1cccc([N+](=O)[O-])c1 (stereo not drawn) [Test Compound 3, Methyl 5-(4-hydroxyphenyl)-2(E),4(E)-pentadienyl 1,4-dihydro-2,6-dimethyl-4-(3-nitrophenyl)-pyridine-3,5-dicarboxylate]
[1]; [4]
  IC50: 1.73 µM

## COC(=O)C1=C(C)NC(C)=C(C(=O)OC/C=C/c2ccc(O)c(OC)c2)C1c1cccc([N+](=O)[O-])c1 (stereo not drawn) [Test Compound 7, Methyl 3-(3-methoxy-4-hydroxyphenyl)-2(E)-propenyl 1,4-dihydro-2,6-dimethyl-4-(3-nitrophenyl)pyridine-3,5-dicarboxylate]
[1]; [4]
  IC50: 10.5 µM

## COC(=O)C1=C(C)NC(C)=C(C(=O)OC/C=C/c2ccc(OC)cc2)C1c1cccc([N+](=O)[O-])c1 (stereo not drawn) [Test Compound 8, Methyl 3-(4-methoxyphenyl)-2(E)-propenyl 1,4-dihydro-2,6-dimethyl-4-(3-nitrophenyl)-pyridine-3,5-dihydrocarboxylate]
[1]; [4]
  IC50: 5.64 µM

## COC(=O)C1=C(C)NC(C)=C(C(=O)OC/C=C/c2nnnn2C)C1c1cccc([N+](=O)[O-])c1 (stereo not drawn) [Test Compound 9, Methyl 3-(1-methyl-1,2,3,4-tetrazol-5-yl)-2(E)-propenyl 1,4-dihydro-2,6-dimethyl-4-(3-nitrophenyl)pyridine-3,5-dicarboxylate]
[1]; [4]
  IC50: 11.7 µM
[2]
  IC50: 79.2 µM

## COC(=O)C1=C(C)NC(C)=C(C(=O)OC/C=C/c2ccco2)C1c1cccc([N+](=O)[O-])c1 (stereo not drawn) [Test Compound 10, Methyl 3-furyl-2(E)-propenyl 1,4-dihydro-2,6-dimethyl-4-(3-nitrophenyl)pyridine-3,5-dicarboxylate]
[1]; [4]
  IC50: 3.54 µM
[2]
  IC50: > 228 µM

## COC(=O)C1=C(C)NC(C)=C(C(=O)OC/C=C/c2ccc(O)c(Cl)c2)C1c1cccc([N+](=O)[O-])c1 (stereo not drawn) [Test Compound 11, Methyl 3-(3-chloro-4-hydroxyphenyl)-2(E)-propenyl 1,4-dihydro-2,6-dimethyl-4-(3-nitrophenyl)pyridine-3,5-dicarboxylate]
[1]; [4]
  IC50: 10.6 µM
[2]
  IC50: 200 µM

## COC(=O)C1=C(C)NC(C)=C(C(=O)OC/C=C/c2ccccc2O)C1c1cccc([N+](=O)[O-])c1 (stereo not drawn) [Test Compound 13, Methyl 3-(2-hydroxyphenyl)-2(E)-propenyl 1,4-dihydro-2,6-dimethyl-4-(3-nitrophenyl)-pyridine-3,5-dicarboxylate]
[1]; [4]
  IC50: 3.55 µM

## COC(=O)C1=C(C)NC(C)=C(C(=O)OC/C=C/c2ccc(OC(C)=O)cc2)C1c1cccc([N+](=O)[O-])c1 (stereo not drawn) [Test Compound 16, Methyl 3-(4-acetyloxyphenyl)-2(E)-propenyl 1,4-dihydro-2,6-dimethyl-4-(3-nitrophenyl)-pyridine-3,5-dicarboxylate]
[1]; [4]
  IC50: 5.92 µM

## COC(=O)C1=C(C)NC(C)=C(C(=O)OCCN2CC=C(c3ccc(C)cc3)CC2)C1c1cccc([N+](=O)[O-])c1 (stereo not drawn) [Test Compound 17, Methyl 2-[4-(4-methylphenyl)-1,2,3,6-tetra-hydropyridyl]ethyl 1,4-dihydro-2,6-dimethyl-4-(3-nitrophenyl)pyridine-3,5-dicarboxylate]
[1]; [4]
  IC50: 10.3 µM
[2]
  IC50: > 188 µM

## COC(=O)C1=C(C)NC(C)=C(C(=O)OC/C=C/c2ccc(O)cc2)C1c1ccccc1 (stereo not drawn) [Test Compound 18, Methyl 3-(4-hydroxyphenyl)-2(E)-propenyl 1,4-dihydro-2,6-dimethyl-4-phenylpyridine-3,5-dicarboxylate]
[1]; [4]
  IC50: 16.2 µM

## COC(=O)C1=C(C)NC(C)=C(C(=O)OC/C=C/c2ccc(O)cc2)C1c1ccccc1C (stereo not drawn) [Test Compound 19, Methyl 3-(4-hydroxyphenyl)-2(E)-propenyl 1,4-dihydro-2,6-dimethyl-4-(2-methylphenyl)-pyridine-3,5-dicarboxylate]
[1]; [4]
  IC50: 13.4 µM

## COC(=O)C1=C(C)NC(C)=C(C(=O)OC/C=C/c2ccc(O)cc2)C1c1ccc(OC)c(OC)c1 (stereo not drawn) [Test Compound 20, Methyl 3-(4-hydroxyphenyl)-2(E)-propenyl 1,4-dihydro-2,6-dimethyl-4-(3,4-dimethoxy-phenyl)pyridine-3,5-dicarboxylate]
[1]; [4]
  IC50: 6.67 µM
[2]
  IC50: 62.6 µM

## COC(=O)C1=C(C)NC(COC/C=C/c2ccc(O)cc2)=C(C(=O)OC)C1c1cccc([N+](=O)[O-])c1 (stereo not drawn) [Test Compound 21, Dimethyl 1,4-dihydro-2-[3-(4-hydroxyphenyl)-2(E)-propenyloxymethyl]-6-methyl-4-(3-nitrophenyl)pyridine-3,5-dicarboxylate]
[1]; [4]
  IC50: 12.1 µM
[2]
  IC50: > 202 µM

## COC(=O)C1=C(C)NC(C)=C(C(=O)OCC#Cc2cccs2)C1c1cccc([N+](=O)[O-])c1 (stereo not drawn) [Test Compound 22, Methyl 3-(2-thienyl)-2-propynyl 1,4-dihydro-2,6-dimethyl-4-(3-nitrophenyl)pyridine-3,5-dicarboxylate]
[1]; [4]
  IC50: 2.43 µM
[2]
  IC50: > 221 µM

## COC(=O)C1=C(C)NC(C)=C(C(=O)OCCN2CCN(CC#Cc3ccccc3)CC2)C1c1cccc([N+](=O)[O-])c1 (stereo not drawn) [Test Compound 23, Methyl 2-[4-(3-phenyl-2-propynyl)-1-piperazinyl]ethyl 1,4-dihydro-2,6-dimethyl-4-(3-nitrophenyl)pyridine-3,5-dicarboxylate]
[1]; [4]
  IC50: 14.3 µM
[2]
  IC50: > 179 µM

## COC(=O)C1=C(C)NC(C)=C(C(=O)OC/C=C/c2ccc(O)cc2)C1c1ccc(Cl)cc1Cl (stereo not drawn) [Test Compound 24, Methyl 3-(4-hydroxyphenyl)-2(E)propenyl 1,4-dihydro-2,6-dimethyl-4-(2,4-dichloro-phenyl)pyridine-3,5-dicarboxylate]
[1]; [4]
  IC50: 5.02 µM
[2]
  IC50: 30.7 µM

## COC(=O)C1=C(C)NC(C)=C(C(=O)OCCN(C)Cc2ccccc2)C1c1cccc([N+](=O)[O-])c1 (stereo not drawn) [Test Compound 26, Methyl 2-(N-methyl-N-benzylamino)ethyl 1,4-dihydro-2,6-dimethyl-4-(3-nitrophenyl)pyridine-3,5-dicarboxylate, reference compound]
[1]
  IC50: 13 µM

## methyl 3-(4-tetrahydropyranyloxyphenyl)-2(E)-propenyl 1,4-dihydro-2,6-dimethyl-4-(3-nitrophenyl)pyridine-3,5-dicarboxylate [Example 1]
[3]; 8 hours
  Blood pressure after the administration, 8 hours (difference from the absolute value before administration): -20.3 mm-Hg
[3]
  Blood pressure after the administration, 24 hours (difference from the absolute value before administration): -41.0 mm-Hg
  Blood pressure after the administration, 30 hours (difference from the absolute value before administration): -52.0 mm-Hg
  Blood pressure after the administration, 48 hours (difference from the absolute value before administration): -26.5 mm-Hg
  Blood pressure after the administration, 54 hours (difference from the absolute value before administration): -19.8 mm-Hg
[3]; listed as 6
  Blood pressure after the administration, 24 hours (difference from the absolute value before administration): +1.8 mm-Hg
[3]; 72 hours
  Blood pressure after the administration, 72 hours (difference from the absolute value before administration): -12.5 mm-Hg

## methyl 3-[4-(2-tetrahydropyranyloxyphenyl)]-2-propynyl 1,4-dihydro-2,6-dimethyl-4-(3-nitrophenyl)pyridine-3,5-dicarboxylate [Example 3]
[3]
  Blood pressure after the administration, 24 hours (difference from the absolute value before administration): -31.0 mm-Hg
  Blood pressure after the administration, 30 hours (difference from the absolute value before administration): -30.8 mm-Hg
  Blood pressure after the administration, 48 hours (difference from the absolute value before administration): -15.6 mm-Hg
  Blood pressure after the administration, 54 hours (difference from the absolute value before administration): -12.6 mm-Hg
